Assay results taken from patent publication US8063012B2, “Neuroprotective peptide inhibitors of AP-1 signaling and uses therefor” (Phylogica Limited, priority 2006, dated 2011).
Non-standard residues stand in square brackets, D forms with d. Residues, ends and D or L forms follow the SMILES beside them. No end group written: not given here.

Experiments:
[1] = system: primary cortical neuronal cultures; assay: Glutamate excitotoxicity in primary cortical neuronal cultures, neuronal viability by MTS assay; assay type: cell-based, rat; conditions: for neuroprotection compared with JNKI-1D-TAT: 1 μM concentration
Procedure: Neurons were resuspended in Neurobasal (NB; Invitrogen) containing 2% B27 supplement (B27; Invitrogen). Before seeding, culture vessels comprising either a 96-well plastic plate or 24-well plastic plate with 13 mm glass coverslips (ProSciTech, Australia), were coated with poly-D-lysine (50 μg/mL; 70-150K; Sigma) and incubated overnight at room temperature. […] Neurons were plated to obtain approximately 10,000 viable neurons for each well of a 96-well plate, or 200,000 viable neurons per well of a 24-well plate, on day in vitro (DIV) […]. […] On DIV 4, one third of the culture medium was removed and replaced with fresh NB/2% B27 containing the mitotic inhibitor, cytosine arabinofuranoside (Sigma) at 1 μM concentration. On DIV 8, one half of the culture medium was replaced with NB/2% B27.
(§1) To induce glutamate excitotoxicity in the cortical neuronal cultures (96-well plate format), 50 μl of conditioned media containing 200 μM glutamate was added to culture wells containing 50 μl conditioned media (100 μM final glutamate concentration). Cultures were incubated at 37° C. in a CO2 incubator for 5 minutes, after which time the media was replaced with 100 μl of 50% NB/2% N2 and 50% balance salt solution (NB/N2:BSS).
Untreated and glutamate-treated control samples received media additions with and without glutamate respectively.
(§2) Eighteen hours after glutamate exposure, neuronal cultures were examined by light microscopy for qualitative assessment of neuronal damage. Neuronal viability was quantitatively measured by 3-(4,5,dimethyliazol-2-yl)-5-(3-carboxymethoxy-phenyl)-2-(4-sulfophenyl)-2H-tetrazolium salt (MTS) assay (Promega, Australia). The MTS assay measures the mitochondrial conversion of the tetrazolium salt to a water-soluble brown formazan salt, which is detected spectrophotometrically at 495 nm. MTS absorbance data was converted to reflect proportional cell viability relative to both the untreated and glutamate treated controls. […] All assays were performed with quadruplicate sister neuronal cultures repeated a minimum of four times independently.

[2] = system: primary cortical neuronal cultures; assay: Light microscopy assessment of neuronal damage after glutamate exposure; assay type: cell-based, rat; conditions: for neuronal morphology (cellular rounding, survival) after glutamate exposure: light microscopy, one hour to 18 hours post glutamate exposure; for neurons that appeared intact and viable: Sprague-Dawley, rat, 18 hours
Procedure: Cortical neuronal cultures were established as described by Meloni et al., Neuroscience 108, 17-26, 2001. Briefly, cortical tissue from E18-E19 Sprague-Dawley rats was dissociated in Dulbelcco's Modified Eagle Medium (DMEM; Invitrogen, Australia) supplemented with 1.3 mM L-cysteine, 0.9 mM NaHCO3, 10 units/ml papain (Sigma, USA) and 50 units/ml DNase (Sigma) and washed in cold DMEM/10% (v/v) horse serum. Neurons were resuspended in Neurobasal (NB; Invitrogen) containing 2% B27 supplement (B27; Invitrogen). Before seeding, culture vessels comprising either a 96-well plastic plate or 24-well plastic plate with 13 mm glass coverslips (ProSciTech, Australia), were coated with poly-D-lysine (50 μg/mL; 70-150K; Sigma) and incubated overnight at room temperature. The poly-D-lysine was removed and replaced with NB (containing 2% B27; 4% fetal bovine serum; 1% horse serum; 62.5 μM glutamate; 25 μM 2-mercaptoethanol; and 30 μg/mL streptomycin and 30 μg/mL penicillin). Neurons were plated to obtain approximately 10,000 viable neurons for each well of a 96-well plate, or 200,000 viable neurons per well of a 24-well plate, on day in vitro (DIV) […]. Neuronal cultures were maintained in a CO2 incubator (5% CO2, 95% air balance, 98% humidity) at 37° C. On DIV 4, one third of the culture medium was removed and replaced with fresh NB/2% B27 containing the mitotic inhibitor, cytosine arabinofuranoside (Sigma) at 1 μM concentration. On DIV 8, one half of the culture medium was replaced with NB/2% B27. Cultures were used on DIV 11 or 12, and consisted of >95% neurons.
as §1, §2

[3] = 1 μM extracellular concentration
[4] = 5 μM extracellular peptide, 100 μM glutamate 5 min, MTS 18 h, no insult = 100%
[5] = 2 μM extracellular concentration
[6] = Sprague-Dawley, rat, 18 h, 5 μM

Compound	neuroprotection compared with JNKI-1D-TAT [1]	neuroprotection following glutamate excitotoxicity [1, 3]	neuronal viability following glutamate excitotoxicity [1, 4] [%]	neuronal morphology (cellular rounding, survival) after glutamate exposure [2]	neuroprotection following glutamate excitotoxicity [1, 5]	neurons that appeared intact and viable [2]	neuronal viability following glutamate excitotoxicity [1, 6] [%]	other results
GRKKRRQRRRGGLQGRRRQGYQSIKP [PYC36L-TAT]	greater neuroprotection than JNKI-1D-TAT	significant level of neuroprotection	64	did not begin to round and survived glutamate excitotoxicity				neuronal viability following glutamate excitotoxicity ([1]; 1 μM extracellular peptide, MTS 18 h): 30%
GRKKRRQRRRGGLQGRRQPGQQPQGRWSGRALPAHR [PYC38/39L-TAT]		neuroprotective trend	69	did not begin to round and survived glutamate excitotoxicity	initial significant neuroprotection			
CC[C@@H](C)[C@@H](NC(=O)CNC(=O)CNC(=O)[C@@H](CCCNC(=N)N)NC(=O)[C@@H](CCCNC(=N)N)NC(=O)[C@H](N)CCCCN)C(=O)N[C@H](CC(C)C)C(=O)N[C@H](CCCNC(=N)N)C(=O)N[C@H](Cc1ccc(O)cc1)C(=O)NCC(=O)N[C@H](CCC(N)=O)C(=O)N1CCC[C@@H]1C(=O)N[C@H](CCC(N)=O)C(=O)N[C@H](CO)C(=O)N[C@H](CCC(N)=O)C(=O)NCC(=O)N[C@H](CCCNC(=N)N)C(=O)N[C@H](CCCNC(=N)N)C(=O)N[C@H](CCCNC(=N)N)C(=O)N[C@H](CCC(N)=O)C(=O)N[C@H](CCCNC(=N)N)C(=O)N[C@H](CCCNC(=N)N)C(=O)N[C@H](CCCCN)C(=O)N[C@H](CCCCN)C(=O)N[C@H](CCCNC(=N)N)C(=O)NCC(=O)O [PYC36D Scram-TAT, reference compound] (H-[dK][dR][dR]GG[dI][dL][dR][dY]G[dQ][dP][dQ][dS][dQ]G[dR][dR][dR][dQ][dR][dR][dK][dK][dR]G-OH; N-terminus and C-terminus assumed)				displayed cellular rounding		2-5%		neuroprotection in the glutamate model ([1]; 5 μM extracellular peptide): failed to provide neuroprotection; neuroprotection in the glutamate model ([1]; 5 μM extracellular peptide, listed as PYC36L Scram-TAT): reduced neuroprotection
GRKKRRQRRRGAYQSIRSGGIESSSKRER [PYC35L-TAT]			42	did not begin to round and survived glutamate excitotoxicity	neuroprotective trend			extracellular concentration providing significant neuroprotection ([1]; glutamate excitotoxicity, dose response 0.1-10 μM): ≥ 2 µM
CC[C@@H](C)[C@@H](NC(=O)[C@@H](CCCCN)NC(=O)[C@H]1CCCN1)C(=O)N[C@H](CO)C(=O)N[C@H](CCC(N)=O)C(=O)N[C@H](Cc1ccc(O)cc1)C(=O)NCC(=O)N[C@H](CCC(N)=O)C(=O)N[C@H](CCCNC(=N)N)C(=O)N[C@H](CCCNC(=N)N)C(=O)N[C@H](CCCNC(=N)N)C(=O)NCC(=O)N[C@H](CCC(N)=O)C(=O)N[C@H](CC(C)C)C(=O)NCC(=O)O [PYC36D, Pro Lys Ile Ser Gln Tyr Gly Gln Arg Arg Arg Gly Gln Leu Gly] (H-[dP][dK][dI][dS][dQ][dY]G[dQ][dR][dR][dR]G[dQ][dL]G-OH; N-terminus and C-terminus assumed)				displayed cellular rounding		2-5%		
CC[C@@H](C)[C@@H](NC(=O)[C@@H](CC(N)=O)NC(=O)[C@@H](CCC(N)=O)NC(=O)[C@@H](CCC(=O)O)NC(=O)[C@@H](Cc1c[nH]cn1)NC(=O)[C@@H](Cc1c[nH]cn1)NC(=O)[C@@H](CCCNC(=N)N)NC(=O)[C@@H](CC(C)C)NC(=O)[C@@H](CC(C)C)NC(=O)[C@H]1CCCN1C(=O)[C@H](N)CC(C)C)C(=O)N[C@H](CO)C(=O)N[C@@H](C(=O)NCC(=O)N[C@H](CCCNC(=N)N)C(=O)N[C@H](CCCNC(=N)N)C(=O)N[C@H](CCCNC(=N)N)C(=O)N[C@H](CCC(N)=O)C(=O)N[C@H](CCCNC(=N)N)C(=O)N[C@H](CCCNC(=N)N)C(=O)N[C@H](CCCCN)C(=O)N[C@H](CCCCN)C(=O)N[C@H](CCCNC(=N)N)C(=O)NCC(=O)O)C(C)C [PYC41D-TAT]					initial significant neuroprotection		40	
CC[C@@H](C)[C@@H](NC(=O)[C@@H](CCC(=O)O)NC(=O)[C@@H](CO)NC(=O)[C@@H](CO)NC(=O)[C@@H](CO)NC(=O)[C@@H](CCCCN)NC(=O)[C@@H](CCCNC(=N)N)NC(=O)[C@@H](CCC(=O)O)NC(=O)[C@H](N)CCCNC(=N)N)C(=O)NCC(=O)NCC(=O)N[C@H](CO)C(=O)N[C@H](CCCNC(=N)N)C(=O)N[C@@H](C(=O)N[C@H](CO)C(=O)N[C@H](CCC(N)=O)C(=O)N[C@H](Cc1ccc(O)cc1)C(=O)N[C@H](C)C(=O)NCC(=O)O)[C@H](C)CC [PYC35D, Arg Glu Arg Lys Ser Ser Ser Glu Ile Gly Gly Ser Arg Ile Ser Gln Tyr Ala Gly] (H-[dR][dE][dR][dK][dS][dS][dS][dE][dI]GG[dS][dR][dI][dS][dQ][dY][dA]G-OH; N-terminus and C-terminus assumed)				displayed cellular rounding		2-5%		
CC[C@@H](C)[C@@H](NC(=O)[C@H](N)Cc1ccc(O)cc1)C(=O)N[C@H](Cc1ccc(O)cc1)C(=O)N1CCC[C@@H]1C(=O)N[C@H](Cc1ccc(O)cc1)C(=O)N[C@H](C)C(=O)N[C@H](Cc1ccc(O)cc1)C(=O)N[C@H](CO)C(=O)N[C@H](CCC(N)=O)C(=O)N[C@H](CC(N)=O)C(=O)N[C@@H](C(=O)N[C@H](CC(C)C)C(=O)NCC(=O)N[C@H](CCCNC(=N)N)C(=O)N[C@H](CCCNC(=N)N)C(=O)N[C@H](CCCNC(=N)N)C(=O)N[C@H](CCC(N)=O)C(=O)N[C@H](CCCNC(=N)N)C(=O)N[C@H](CCCNC(=N)N)C(=O)N[C@H](CCCCN)C(=O)N[C@H](CCCCN)C(=O)N[C@H](CCCNC(=N)N)C(=O)NCC(=O)O)[C@H](C)CC [PYC19D-TAT]	greater neuroprotection than JNKI-1D-TAT	significant neuroprotection					68	neuroprotection of D-isoform compared with L-isoform ([1]; concentrations higher than 1 μM): clearly provides enhanced neuroprotection
CC(C)C[C@@H](NC(=O)[C@H]1CCCN1C(=O)[C@@H](C)NC(=O)[C@@H](Cc1c[nH]cn1)NC(=O)[C@H](N)CCCNC(=N)N)C(=O)N[C@H](C)C(=O)N[C@H](CCCNC(=N)N)C(=O)NCC(=O)N[C@H](CO)C(=O)N[C@H](Cc1c[nH]c2ccccc12)C(=O)N[C@H](CCCNC(=N)N)C(=O)NCC(=O)N[C@H](CCC(N)=O)C(=O)N1CCC[C@@H]1C(=O)N[C@H](CCC(N)=O)C(=O)N[C@H](CCC(N)=O)C(=O)NCC(=O)N1CCC[C@@H]1C(=O)N[C@H](CCC(N)=O)C(=O)N[C@H](CCCNC(=N)N)C(=O)N[C@H](CCCNC(=N)N)C(=O)NCC(=O)N[C@H](CCC(N)=O)C(=O)N[C@H](CC(C)C)C(=O)NCC(=O)NCC(=O)N[C@H](CCCNC(=N)N)C(=O)N[C@H](CCCNC(=N)N)C(=O)N[C@H](CCCNC(=N)N)C(=O)N[C@H](CCC(N)=O)C(=O)N[C@H](CCCNC(=N)N)C(=O)N[C@H](CCCNC(=N)N)C(=O)N[C@H](CCCCN)C(=O)N[C@H](CCCCN)C(=O)N[C@H](CCCNC(=N)N)C(=O)NCC(=O)O [PYC38/39D-TAT] (H-[dR][dH][dA][dP][dL][dA][dR]G[dS][dW][dR]G[dQ][dP][dQ][dQ]G[dP][dQ][dR][dR]G[dQ][dL]GG[dR][dR][dR][dQ][dR][dR][dK][dK][dR]G-OH; N-terminus and C-terminus assumed)	greater neuroprotection than JNKI-1D-TAT				initial significant neuroprotection		83	
